From US20240208901A1, “Deuterated 3,3'-Diselenodipropionic Acid (DSePA) and Its Use as an Anticancer or Radioprotective Agent” (Secretary, Department of Atomic Energy, priority 2022, published 2024)

Experiments:
[1] = test system: non-cancerous human lung fibroblast cells (WI-38 & WI-26 VA4); assay: MTT assay, non-cancerous human lung fibroblast cells (summary statement); assay type: cell-based; settings: WI-38 & WI-26 VA4 cells
Text: 3,3′-Disclenodipropionic acid-D8 (D-DSePA, chemical structure shown in FIG. 1) was synthesized by reacting freshly prepared sodium selenide (Na2Se2) and 3-bromopropionic acid-D4 in D2O solvent with 42% yield. The synthesized D-DSePA was purified and characterized by NMR spectroscopy and mass spectrometry. The molecular structure of D-DSePA has been established by single-crystal X-ray diffraction analysis. The treatment of D-DSePA and un-deuterated DSePA inhibited the growth of human NSCLC cells such as A549, H1975 and H3122 with half maximum concentration (IC50) in the range of 5-50 μM by MTT assay. […] Finally, at identical treatment concentration, D-DSePA offered better radioprotection to non-cancerous WI38 cells with a dose modification factor (DMF) of 1.16±0.05 as compared to un-deuterated DScPA with DMF of 1.12±0.03.
MTT Assay—To evaluate the anti-proliferative effect of D-DScPA and DScPA, Cells (˜5×10^3) suspended in 100 μl of complete culture medium were seeded in each well of 96 well plates. […] The percentage (%) cytotoxicity was calculated from the decrease in absorbance at 570 nm of treated groups as compared to that of control group. […] The therapeutic index was calculated by normalizing the IC50 concentration of D-DSePA/DSePA in non-cancerous cells to that in cancerous cells.

WI-38 cells = assay: Clonogenic assay, radioprotection of WI-38 cells against γ-irradiation; assay type: cell-based, human; settings: γ-irradiation 2-12 Gy
Procedure: Further, clonogenic assay is considered as the gold standard method for evaluating the anticancer activity of any compound and is also a good indicator of the in vivo efficacy of any anticancer compound. Therefore, the therapeutic index of DSePA and D-DSePA in A549/WI-38 cells was also validated by employing the clonogenic assay. For this, A549/WI-38 cells were treated with the varying concentrations (0.1-2 μM)/(1-500 μM) of DSePA/D-DSePA for seven days and the survival fraction was calculated by counting the number of surviving clones (FIG. 11A). The plot of survival fraction verses the concentration of DScPA/D-DSCPA was used to estimate the IC50 of above compounds to inhibit the growth of A549/WI-38 cells. […] This clearly confirmed that deuteration of DScPA reduced its toxicity in normal cells without compromising its efficacy in cancer cells. Since anticancer agents are intended to be used in combination with radiation, DSePA/D-DSePA at a treatment concentration of 0.5 μM (dose close to IC50 as determined by clonogenic assay) was combined with varying absorbed doses (2-8 Gy) of γ-irradiation and the effect of combinatorial treatment on the viability of A549 cells was determined by clonogenic assay (FIG. 12A & 12B). For this, A549 cells exposed to the varying absorbed doses (2-8 Gy) of γ-radiation were immediately treated with DScPA/D-DScPA and cultured for seven days prior to clonogenic assay. […] The D10 value of the combinatorial treatment involving DScPA estimated was 4.5 Gy (FIG. 12B). […]
(§1) Clonogenic assay—Clonogenic assay was performed according to the method reported previously. […] After 7 days, colonies were fixed with absolute methanol for 5 min, stained with 0.5% crystal violet for 5 min, washed with distilled water to remove excess stain and counted manually under a stereo microscope. […] The plating efficiency and the survival fraction under irradiated and drug treated conditions were calculated using following formulae: […]
(§2) The plating efficiency of A549 and WI38 cells was calculated by seeding ˜300 and ˜500 cells respectively. […]

[2] = test system: lung cancer cell lines (A549, H1975 and H3122) versus normal lung cells (WI-38 and WI-26 VA4); assay: Therapeutic index by MTT assay, lung cancer cell lines versus normal lung cells; assay type: cell-based, human; settings: for Therapeutic Index (IC50 in normal cell / IC50 in cancer cells): 48 h post-treatment
Procedure: Therefore, D-DSePA was compared with un-deuterated DSePA for its anticancer activity in A549, H1975 and H3122 cell lines which are representative of NSCLC. For this, above cells were treated with the varying concentrations (0.1-100 μM) of DSePA/D-DSePA for 48 h and the cell viability was determined by MTT assay (FIG. 9A-C). The plot of percent (%) cytotoxicity (100-% viability) versus the concentration of DSePA/D-DSePA was used to estimate the half maximum concentration (IC50) of above compounds to inhibit the proliferation of cells. […] Similarly, the toxicity of DSePA/D-DSePA was studied in non-cancerous lung fibroblast cells, WI-38 and WI-26 VA4 in the concentration range of 0.1 to 1000 μM at 48 h post treatment by MTT assay (FIG. 9D and 9E). […] Employing these values, the therapeutic index (IC50 in normal lung cell/IC50 in lung cancer cell) of DSePA and D-DSePA in different pairs of normal versus cancerous cells (viz., A549/WI-38, A549/WI-26 VA4, H1975/WI-38, H1975/WI-26 VA4, H3122/WI-38 and H3122/WI-26 VA4) was calculated (Table-3). […] The average therapeutic index of DSePA and D-DSePA estimated from above study was 11.05±1.5 and 78.7±29.2 respectively (FIG. 10).
MTT Assay—To evaluate the anti-proliferative effect of D-DScPA and DScPA, Cells (˜5×10^3) suspended in 100 μl of complete culture medium were seeded in each well of 96 well plates. The cells were allowed to attach and grow for 24 h, treated with desired concentrations of D-DSePA/DScPA dissolved in culture medium for 48 h and then processed for MTT assay as described in literature. The percentage (%) cytotoxicity was calculated from the decrease in absorbance at 570 nm of treated groups as compared to that of control group. The % cytotoxicity was plotted as a function of the concentration of D-DSePA and DSePA and from this curve, the concentration of D-DSePA/DScPA causing 50% toxicity (IC50) was estimated. The therapeutic index was calculated by normalizing the IC50 concentration of D-DSePA/DSePA in non-cancerous cells to that in cancerous cells.

A549 cells = assay: Clonogenic assay, combinatorial treatment with γ-irradiation in A549 cells; assay type: cell-based, human
Procedure: Further, clonogenic assay is considered as the gold standard method for evaluating the anticancer activity of any compound and is also a good indicator of the in vivo efficacy of any anticancer compound. Therefore, the therapeutic index of DSePA and D-DSePA in A549/WI-38 cells was also validated by employing the clonogenic assay. For this, A549/WI-38 cells were treated with the varying concentrations (0.1-2 μM)/(1-500 μM) of DSePA/D-DSePA for seven days and the survival fraction was calculated by counting the number of surviving clones (FIG. 11A). The plot of survival fraction verses the concentration of DScPA/D-DSCPA was used to estimate the IC50 of above compounds to inhibit the growth of A549/WI-38 cells. […] This clearly confirmed that deuteration of DScPA reduced its toxicity in normal cells without compromising its efficacy in cancer cells. Since anticancer agents are intended to be used in combination with radiation, DSePA/D-DSePA at a treatment concentration of 0.5 μM (dose close to IC50 as determined by clonogenic assay) was combined with varying absorbed doses (2-8 Gy) of γ-irradiation and the effect of combinatorial treatment on the viability of A549 cells was determined by clonogenic assay (FIG. 12A & 12B). For this, A549 cells exposed to the varying absorbed doses (2-8 Gy) of γ-radiation were immediately treated with DScPA/D-DScPA and cultured for seven days prior to clonogenic assay. […] The D10 value of the combinatorial treatment involving DScPA estimated was 4.5 Gy (FIG. 12B). Similarly, D10 value of the combinatorial treatment involving D-DSePA estimated was 4 Gy. From these values, the dose modification factor (DMF or the ratio of the D10 of combinatorial treatment to that of D10 of radiation) of DScPA and D-DScPA estimated was 0.87±0.01 and 0.83±0.02 respectively. […] While the objective of radiotherapy is to achieve tumor control, it is also known to cause normal tissue toxicity. Previously, DSePA has been reported to protect normal cells from lethal effects of γ-radiation. Thus radio-protective activity of D-DSePA was compared with DScPA in terms of their abilities to protect non-cancerous lung fibroblast (WI-38) cells against γ-irradiation induced cell death. For this, WI-38 cells were pretreated with DSePA/D-DScPA for 24 h at an identical concentration of 0.5 μM (close to IC50 required to inhibit growth of A549 lung cancer cells by clonogenic assay) and then exposed to varying doses (2-12 Gy) of γ-irradiation. The survival of cells against radiation exposure was estimated by clonogenic assay and the dose response curve was prepared in the presence and absence of drug (DSePA/D-DScPA) (FIG. 12C & 12D). By using this dose response curve, the dose modification factor (DMF or the ratio of the D10 of radiation plus drug and D10 of radiation alone) of DSePA and D-DSePA estimated was 1.12±0.03 and 1.16±0.05 respectively.
as §1, §2

Structure (SMILES): [2H]C([2H])([Se][Se]C([2H])([2H])C([2H])([2H])C(=O)O)C([2H])([2H])C(=O)O [D-DSePA, 3,3′-diselenodipropionic acid-D8]
- IC50 higher as compared to un-deuterated DSePA [1]: 4 to 5 times
- dose modification factor (DMF, D10 of radiation plus drug / D10 of radiation alone) (WI-38 cells; WI-38 cells pretreated 24 h with 0.5 μM drug, clonogenic assay): 1.16±0.05
- radioprotective activity in normal lung cells (WI-38 cells; WI-38 cells, 0.5 μM 24 h pre-treatment): exhibited radioprotective activity in normal lung cells
- Therapeutic Index (IC50 in normal cell / IC50 in cancer cells) ([2]; A549/WI-26 VA4, MTT assay): 36.2 ± 1.9
- Therapeutic Index (IC50 in normal cell / IC50 in cancer cells) ([2]; A549/WI-38, MTT assay): 65.7 ± 3.3
- Therapeutic Index (IC50 in normal cell / IC50 in cancer cells) ([2]; H1975/WI-26 VA4, MTT assay): 119.6 ± 5.9
- Therapeutic Index (IC50 in normal cell / IC50 in cancer cells) ([2]; H1975/WI-38, MTT assay): 217.4 ± 10.9
- Therapeutic Index (IC50 in normal cell / IC50 in cancer cells) ([2]; H3122/WI-26 VA4, MTT assay): 11.8 ± 0.6
- Therapeutic Index (IC50 in normal cell / IC50 in cancer cells) ([2]; H3122/WI-38, MTT assay): 21.5 ± 1.0
- average therapeutic index ([2]; mean of six normal/cancer cell pairs, mean±SEM (n=6), MTT assay): 78.7±29.2
- higher therapeutic index as compared to un-deuterated DSePA ([2]; non-cancerous lung fibroblast versus NSCLC (A549, H1975 and H3122)): ~7 folds
- dose modification factor (DMF, D10 of combinatorial treatment / D10 of radiation) (A549 cells; 0.5 μM drug immediately after γ-radiation (2-8 Gy)): 0.83±0.02
- effect on radiation kill of lung cancer cells (A549 cells; 0.5 μM with γ-radiation 2-8 Gy): did not protect lung cancer cells from radiation kill
- D10 value (decimal reduction dose) of the combinatorial treatment (A549 cells; γ-radiation 2-8 Gy then 0.5 μM drug immediately, seven days, radiation alone D10 5 Gy): 4 Gy
